Reference: paper PMC10544575, “Inhibitory mechanism of vortioxetine on CYP450 enzymes in human and rat liver microsomes” (Frontiers in Pharmacology, 2023)
“Also recorded” adds a separate entry of the source. Read-outs that look alike come from different tables or passages of the source.

What was measured:
CYP2D = assay: IC50 of vortioxetine on CYP2D (dextromethorphan) in RLMs; format: in vitro ADME; conditions: rat, rat liver microsomes, probe dextromethorphan
Protocol: (§1) The components of the incubation system were as follows: 0.20 mg/mL HLMs or 0.20 mg/mL RLMs, 0.1 M Tris-HCl, vortioxetine, and the probe substrates of each enzyme. In the study of Km’s (Michaelis–Menten constant) experiment, midazolam (1, 2, 5, 10, 20, 50 and 100 μM in HLMs and RLMs) corresponded to CYP3A4/3A; bupropion (10, 20, 50, 100, 200, 500, 1,000 and 2000 μM in HLMs; 1, 2, 5, 10, 20, 50, 100 and 200 μM in RLMs) corresponded to CYP2B6/2B; amodiaquine (5, 10, 20, 50, 100 and 200 μM in HLMs; 10, 20, 50, 100, 200, 500 μM in RLMs) corresponded to CYP2C8/CYP2C-1; losartan (1, 2, 5, 10, 20, 50, 100, 200 μM in HLMs; 10, 20, 50, 100, 200, 500 and 1,000 μM in RLMs) corresponded to CYP2C9/CYP2C-2; mephenytoin (20, 50, 100, 200, 500 and 1,000 μM in HLMs; 5, 10, 20, 50, 100, 200, 500 and 1,000 μM in RLMs) corresponded to CYP2C19/CYP2C-3; and dextromethorphan (1, 2, 5, 10, 20, 50 and 100 μM in HLMs and RLMs) corresponded to CYP2D6/CYP2D. […]
(§2) All experiments results were detected by UPLC-MS/MS, which equipped with a Waters Acquity UPLC system (Milford, MA, United States) and a Waters Xevo TQ-S triple quadrupole tandem mass spectrometer with an electrospray ionization source (Milford, MA, United States). […]
(§3) IC50 values and enzyme kinetic parameters were calculated by Graphpad Prism 6.0 (GraphPad software Inc., CA, United States). […] Data for each experiment were expressed as mean ± SD (n = 3).

CYP3A = assay: IC50-shift experiment, CYP3A in RLMs; format: in vitro ADME; conditions: rat, rat liver microsomes, probe midazolam; for IC50 at 30 min: midazolam 3.5 μM
CYP2C-2 = assay: IC50-shift experiment, CYP2C-2 in RLMs; format: in vitro ADME, rat; conditions: for IC50 at 30 min: losartan 15 μM
CYP2C-3 = assay: IC50-shift experiment, CYP2C-3 in RLMs; format: in vitro ADME; conditions: rat, rat liver microsomes, probe mephenytoin; for IC50 at 30 min: mephenytoin 400 μM
Protocol: as §1, with “CYP2D6/CYP2D. After 5.0 min of preincubation in the shaking water bath, the reaction was started with the addition of 1.0 mM NADPH. The incubated temperature at 37°C for 30 min. After the incubation, the enzyme reaction was stopped by cooling at −80°C, and 200 μL of acetonitrile and 20 μL of internal standard diazepam (200 ng/mL) were added for protein precipitation.” for “CYP2D6/CYP2D.”
(§4) IC50-shift was used to investigate whether the drug produced time-dependent inhibition (TDI) of the enzyme. […] During the experiment, the individual substrates midazolam (4 μM), bupropion (40 μM), amodiaquine (3 μM), losartan (8 μM), mephenytoin (90 μM), and dextromethorphan (10 μM) were determined with vortioxetine IC50-shift in HLMs. […]
as §2, §3

CYP450 = assay: Overall assessment of time-dependent inhibition (IC50-shift) on CYP450 in HLMs and RLMs; format: in vitro ADME, human and rat
Protocol: IC50-shift was used to investigate whether the drug produced time-dependent inhibition (TDI) of the enzyme. […] The above mixture was then incubated for another 30 min. During the experiment, the individual substrates midazolam (4 μM), bupropion (40 μM), amodiaquine (3 μM), losartan (8 μM), mephenytoin (90 μM), and dextromethorphan (10 μM) were determined with vortioxetine IC50-shift in HLMs. […] Other experimental conditions were the same as above.

CYP2D6 = CYP2D6 (Homo sapiens, UniProt P10635); assay: IC50 of vortioxetine on CYP2D6 (dextromethorphan) in HLMs; format: in vitro ADME; parameters: 0.20 mg/mL HLMs; from tissue; host or cells: human liver microsomes
Protocol: as §1, §2, §3

CYP2C9 = CYP2C9 (Homo sapiens, UniProt P11712); assay: IC50-shift experiment, CYP2C9 in HLMs; format: in vitro ADME; parameters: 0.20 mg/mL HLMs or 0.20 mg/mL RLMs; from tissue; host or cells: human liver microsomes; conditions: for IC50: losartan 8 μM
Protocol: as §1, with “CYP2D6/CYP2D. After 5.0 min of preincubation in the shaking water bath, the reaction was started with the addition of 1.0 mM NADPH. The incubated temperature at 37°C for 30 min. After the incubation, the enzyme reaction was stopped by cooling at −80°C, and 200 μL of acetonitrile and 20 μL of internal standard diazepam (200 ng/mL) were added for protein precipitation.” for “CYP2D6/CYP2D.”
as §4, §2, §3

[1] = 30 min preincubation with 1.0 mM NADPH
[2] = 30 min preincubation without NADPH
[3] = ratio IC50 (−) NADPH to IC50 (+) NADPH, read-out: IC50 fold shift

Sequence of CYP2C9 (P11712 whole entry): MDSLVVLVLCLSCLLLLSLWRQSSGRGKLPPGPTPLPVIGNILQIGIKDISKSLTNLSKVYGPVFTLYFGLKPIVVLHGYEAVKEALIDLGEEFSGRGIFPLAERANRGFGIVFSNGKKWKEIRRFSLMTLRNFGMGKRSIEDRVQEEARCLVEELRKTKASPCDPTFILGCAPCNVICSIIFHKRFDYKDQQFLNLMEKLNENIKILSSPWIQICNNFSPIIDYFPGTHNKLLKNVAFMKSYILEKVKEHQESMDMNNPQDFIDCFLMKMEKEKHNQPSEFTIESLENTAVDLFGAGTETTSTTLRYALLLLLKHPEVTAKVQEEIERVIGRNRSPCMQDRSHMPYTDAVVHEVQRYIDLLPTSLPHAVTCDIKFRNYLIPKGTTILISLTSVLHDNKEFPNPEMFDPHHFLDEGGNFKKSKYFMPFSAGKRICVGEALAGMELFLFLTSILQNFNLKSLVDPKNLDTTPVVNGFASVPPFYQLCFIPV
Sequence of CYP2D6 (P10635 whole entry): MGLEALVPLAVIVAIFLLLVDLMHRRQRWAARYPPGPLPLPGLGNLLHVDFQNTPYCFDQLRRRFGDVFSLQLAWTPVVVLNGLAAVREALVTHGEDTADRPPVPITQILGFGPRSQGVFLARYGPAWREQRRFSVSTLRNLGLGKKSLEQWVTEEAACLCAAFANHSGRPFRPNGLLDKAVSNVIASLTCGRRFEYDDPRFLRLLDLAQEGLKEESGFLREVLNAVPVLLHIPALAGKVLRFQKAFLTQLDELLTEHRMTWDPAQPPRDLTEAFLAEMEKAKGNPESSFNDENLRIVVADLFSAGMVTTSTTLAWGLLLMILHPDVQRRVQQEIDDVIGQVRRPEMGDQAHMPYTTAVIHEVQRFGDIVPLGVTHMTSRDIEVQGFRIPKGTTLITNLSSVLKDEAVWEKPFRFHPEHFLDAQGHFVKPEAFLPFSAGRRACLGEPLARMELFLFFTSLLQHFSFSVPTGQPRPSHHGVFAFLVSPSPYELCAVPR

IC50 at 30 min (CYP2D; RLMs 0.20 mg/mL, dextromethorphan at Km, 37°C, 30 min, read-out: IC50): 15.7 µM | IC50 at 30 min (CYP2D; inhibitory effect (strength judged by IC50), RLMs): > 10 µM | IC50 at 30 min (CYP3A; [1]): 16.4 µM | IC50 at 30 min (CYP3A; [2]): 20.9 µM | activity of CYP2C-2 with the NADPH (CYP2C-2; preincubation with NADPH vs without): significantly increased | IC50 at 30 min (CYP2C-2; rat, rat liver microsomes, probe losartan, CYP2C-2, 30 min preincubation with 1.0 mM NADPH): 37.5 µM | IC50 at 30 min (CYP2C-2; rat, rat liver microsomes, probe losartan, CYP2C-2, 30 min preincubation without NADPH): 8.97 µM | IC50 at 30 min (CYP2C-3; [1]): 5.21 µM | IC50 at 30 min (CYP2C-3; [2]): 24.6 µM | reversibility of inhibition of CYP450 enzymes (CYP450; all CYP450 enzymes studied): reversible inhibition | IC50 (CYP2D6; HLMs 0.20 mg/mL, dextromethorphan at Km, 37°C, 30 min, read-out: IC50): 17.9 µM | IC50 (CYP2D6; inhibitory effect (strength judged by IC50), HLMs): > 10 µM | IC50 (CYP2C9; [1]): 16.7 µM | IC50 (CYP2C9; [2]): 18.6 µM
SMILES: Cc1ccc(Sc2ccccc2N2CCNCC2)c(C)c1 [vortioxetine]
IC50 shift at 30 min (CYP3A; [3]): 1.28 | IC50 shift at 30 min (CYP2C-2; rat, rat liver microsomes, probe losartan, CYP2C-2, ratio IC50 (−) NADPH to IC50 (+) NADPH, read-out: IC50 fold shift): 0.24 | IC50 shift at 30 min (CYP2C-3; [3]): 4.72 | time-dependent inhibition (TDI) (CYP450; six CYP450 isoforms in HLMs and RLMs, judged by IC50-shift (>10 = TDI)): no time-dependent inhibition (TDI); also recorded: no TDI effect | IC50 shift at 30 min (CYP2C9; human, human liver microsomes, probe losartan (8 μM), ratio IC50 (−) NADPH to IC50 (+) NADPH, read-out: IC50 fold shift): 1.11
